Read-outs that look alike come from different tables or passages of the source.
Tested on: selected body organs
Settings: 30 min, 10 MHz
Experimental: Each of four rabbits was injected intravenously with one of the following amounts of the solution obtained in Example 7: 0.01 mmoles/kg, 0.05 mmoles/kg, 0.10 mmoles/kg and 0.20 mmoles/kg. The rabbits were sacrificed 30 min post injection, and the proton relaxation values of selected body organs were measured with NMR, in vitro at 10 MHz.

## Cc1ncc(COP(=O)(O)O)c(CN(CCN(CC(=O)[O-])Cc2c(COP(=O)(O)O)cnc(C)c2O)CC(=O)[O-])c1O.[Mn+2] [Mn(DPDP), manganese chelate complex of N,N'-bis-(pyridoxal-5-phosphate)ethylenediamine-N,N'-diacetic acid]
0.01 mmol/kg i.v.
  T1, Blood: 844 ms
  T1, Brain: 554 ms
  T1, Large Int.: 283 ms
  T1, Liver: 176 ms
  T1, Renal Cort.: 298 ms
  T1, Renal Med.: 502 ms
  T1, Small Int.: 324 ms
  T1, Urine: 821 ms
  T2, Brain: 76 ms
  T2, Large Int.: 64 ms
  T2, Liver: 39 ms
  T2, Renal Cort.: 65 ms
  T2, Renal Med.: 99 ms
  T2, Small Int.: 72 ms
0.05 mmol/kg i.v.
  T1, Blood: 613 ms
  T1, Brain: 496 ms
  T1, Fat: 200 ms
  T1, Heart: 353 ms
  T1, Large Int.: 365 ms
  T1, Liver: 76 ms
  T1, Lung: 575 ms
  T1, Renal Cort.: 210 ms
  T1, Renal Med.: 223 ms
  T1, Skel. Musc.: 494 ms
  T1, Small Int.: 237 ms
  T1, Stom.: 245 ms
  T1, Urine: 150 ms
  T2, Brain: 82 ms
  T2, Fat: 139 ms
  T2, Heart: 54 ms
  T2, Large Int.: 83 ms
  T2, Liver: 31 ms
  T2, Lung: 113 ms
  T2, Renal Cort.: 57 ms
  T2, Renal Med.: 57 ms
  T2, Skel. Musc.: 47 ms
  T2, Small Int.: 52 ms
  T2, Stom.: 41 ms
  T2, Urine: 136 ms
0.10 mmol/kg i.v.
  T1, Blood: 506 ms
  T1, Brain: 590 ms
  T1, Fat: 183 ms
  T1, Heart: 300 ms
  T1, Large Int.: 290 ms
  T1, Liver: 65 ms
  T1, Lung: 435 ms
  T1, Renal Cort.: 188 ms
  T1, Renal Med.: 209 ms
  T1, Skel. Musc.: 425 ms
  T1, Small Int.: 218 ms
  T1, Stom.: 242 ms
  T1, Urine: 90 ms
  T2, Brain: 90 ms
  T2, Fat: 115 ms
  T2, Heart: 51 ms
  T2, Large Int.: 57 ms
  T2, Liver: 23 ms
  T2, Lung: 61 ms
  T2, Renal Cort.: 55 ms
  T2, Renal Med.: 48 ms
  T2, Skel. Musc.: 31 ms
  T2, Small Int.: 46 ms
  T2, Stom.: 52 ms
  T2, Urine: 75 ms
0.20 mmol/kg i.v.
  T1, Blood: 411 ms
  T1, Brain: 352 ms
  T1, Fat: 192 ms
  T1, Heart: 205 ms
  T1, Large Int.: 256 ms
  T1, Liver: 68 ms
  T1, Lung: 376 ms
  T1, Renal Cort.: 143 ms
  T1, Renal Med.: 127 ms
  T1, Skel. Musc.: 232 ms
  T1, Small Int.: 131 ms
  T1, Stom.: 271 ms

From patent US5091169A, “Dipyridoxyl phosphate NMRI contrast agent compositions” (priority 1989, dated 1992)
